Experimental data taken from ChEMBL document CHEMBL1157539, “Thousands of chemical starting points for antimalarial lead identification” (Nature, 2010).

Test system: Plasmodium falciparum
Assay: GSK_TCMDC: Inhibition of Plasmodium falciparum 3D7 in whole erythrocytes, using parasite LDH activity as an index of growth.
Type: functional, organism-based
Conditions: Plasmodium falciparum, 3D7

SMILES	XC50 [nM]
Nc1nc(N)c2c(Sc3ccccc3)cccc2n1	645
O=C(NCCCCCN1CCC(c2c[nH]c3ccccc23)CC1)Nc1ccc(Cl)c(Cl)c1	920
CCN(CC)CCN(Cc1ccc(-c2ccc(C(F)(F)F)cc2)cc1)C(=O)c1ccc(-c2ccc(C#N)cc2)cc1	1110
O=C(NCCN1CCCC1)N1CCCN(c2ncnc3cc(-c4ccc(Cl)cc4)sc23)CC1	918
Cc1cc(N[C@@H](Cc2ccccc2)C(=O)NCc2cccs2)nc(NCCOc2ccccc2)n1	1480
Cc1ccc(C(NC(=O)c2ccccc2)c2ccc3cccnc3c2O)cc1 (centres undefined)	961
COc1cccc(-c2ccc(C(=O)NCC3CCCN(Cc4cccc(C(F)(F)F)c4)C3)s2)c1 (centres undefined)	1140
CC(C)Cc1ccc(N2CCN(CCCCNC(=O)c3ccc(NC(=O)c4cc(C(F)(F)F)cc(C(F)(F)F)c4)cc3)CC2)cc1	179
CC(C)(C)c1ccc(NC(=O)c2cccc(CN3CCN(Cc4cccc(O)c4)CC3)c2)cc1	1400
CCc1nc(N)nc(N)c1-c1ccc(F)c(F)c1	417
Cc1cccn2c(=O)c3cc(C(=O)NCCc4ccccc4)c(=N)n(CCCOC(C)C)c3nc12	481
Cc1cc(O)c(-c2ccc(Oc3ccc(F)cc3)cc2)c(C)n1	972
COC(=O)c1ccc(C(=O)NCCCCN2CCC(c3ccc4c(c3OC)CCCC4)CC2)cc1-c1ccc(C(F)(F)F)cc1	1150
O=C(NCCc1ccccc1)N(Cc1ccccc1-c1ccc(CNCCc2ccccc2)cc1)C1CCN(Cc2ccccc2)CC1	716
CC(C)(C)c1ccc(OCCCON2C(N)=NC(N)=NC2(C)C)cc1	3.2
COc1cccc(Nc2c(C(N)=O)cnc3ccc(-c4ccc([S+](C)[O-])cc4)cc23)c1 (centres undefined)	186
O=S(=O)(c1ccc(Oc2ccccc2)cc1)N(CCC(O)(C(F)(F)F)C(F)(F)F)Cc1cccc(O)c1	491
O=C(NCCCCCCNCc1ccc(-c2ccccc2)cc1)Nc1ccc(Cl)c(Cl)c1	962
CCOC(=O)Cn1ccc2c(NCc3ccccc3)nc(C)nc21	374
N=C(NCC1CC1c1ccccc1)c1cccc(C(=N)NCC2CC2c2ccccc2)n1 (centres undefined)	1760
CN(C)CCCn1c(N)c(-c2nc3ccccc3[nH]2)c2nc(C#N)c(C#N)nc21	591
O=C(Nc1ccc2nc3n(c(=O)c2c1)CCCCC3)C(=O)N1CCC(Cc2ccccc2)CC1	757
CN1CCN(CCCNCc2cccc(Nc3nccc(Nc4ccc(Oc5ccccc5)cc4)n3)c2)CC1	765

SMILES	XC50 [nM]
O=C(NCCCN1CCC(N2CCCCC2)CC1)c1ccc(N2CCOc3ccccc32)s1	732
O=C(CCCCCCc1ccccc1)Nc1ccc2nc3c(c(NCc4ccccc4)c2c1)CCCC3	358
N#Cc1c(N)nc(SCC(=O)Nc2cc(C(F)(F)F)ccc2Cl)c(C#N)c1-c1cccs1	743
CC(C)COc1ccc(Cl)cc1Cc1ccc(-c2nc3cc(N4CCN(C)CC4)ccc3[nH]2)o1	945
CCCCCSc1cc(O)c(C(CNC)C(C)C)cc1OC (centres undefined)	163
O=C(Nc1cc(Cl)c(Cl)cc1NC(=O)c1cccc(-c2ccccc2)c1O)c1cccc(-c2ccccc2)c1O	505
CCOc1c(CNCCCNc2cc(=O)c3ccccc3[nH]2)cc(I)cc1C(C)(C)C	703
COc1cc(C(F)(F)F)nc2c(CNCCCNc3cc(=O)c4ccccc4[nH]3)scc12	1180
CN(c1ccc(NC(=O)Nc2cc(C(F)(F)F)ccc2F)cc1)c1ccnc(NCCN2CCCC2)n1	1150
NC1=NC(c2ccccc2)(c2ccccc2)C(=O)N1CCCCc1ccccc1	760
O=C(NC1CCN(Cc2ccc3c(c2)OCCO3)CC1)c1ccc(-c2cccc(C(F)(F)F)c2)s1	1830
Cc1cccc2nc(-c3cccc(-c4ccc(CN5CCC(C(N)=O)CC5)cc4)c3)[nH]c12	853
Cc1cccc2nc(-c3cccc(-c4ccc(NC(=O)C(C)C(=O)NC(C)C)cc4)c3)[nH]c12 (centres undefined)	1000
O=C(NC(c1ccccc1)c1ccccc1)C(c1cc2ccccc2o1)N1CCN(C(c2ccccc2)c2ccccc2)CC1 (centres undefined)	679
COc1ccc(C2(CNCC(O)c3cccc([N+](=O)[O-])c3)CCCC2)cc1OC (centres undefined)	891
O=C(Nc1cc(Cl)ccc1O)c1cc(-c2ccccc2O)no1	1090
CCc1cn2c3c(cc(C(=O)N[C@@H](Cc4ccccc4)[C@H](O)CN[C@@H](C)CC)cc13)N(C)S(=O)(=O)CC2	74.5
CCn1nc(C(=O)NC2CCOc3ccccc32)c2ccccc2c1=O (centres undefined)	1230
COc1ccc(C2CCC(NCCCCNC(=O)c3ccc(NC(=O)c4ccc(Cl)cc4)cc3)CC2)cc1 (centres undefined)	627
N#Cc1cc([N+](=O)[O-])ccc1-n1nc(-c2cccc(Cl)c2)n(CC2CCCO2)c1=S (centres undefined)	914
COc1cc(NC(=O)N2CCOC(CCN3CCC(c4ccccc4)CC3)(c3ccc(Cl)c(Cl)c3)C2)cc(OC)c1OC (centres undefined)	65.1
Cc1ccccc1C1CCN(C2CCC(NC(=O)/C=C/c3ccc(Cl)cc3)CC2)CC1 (centres undefined)	805
CN1CCC(C(=O)N(Cc2ccc(-c3ccc(CNCCc4ccc(S(C)(=O)=O)cc4)cn3)cc2)Cc2ccc3c(c2)OCO3)CC1	1000

SMILES	XC50 [nM]
CN(C)CC(=O)Nc1ccc(-c2ccc3ccnc(N)c3c2)cc1	33.1
COc1cc2ncnc(NCCc3ccccc3Cl)c2cc1OC	1120
CN(C)CC1CCCN1Cc1ccccc1-c1cnn(C)c(=O)c1Oc1ccccc1F (centres undefined)	1310
Cc1nnsc1C(=O)Nc1cccc(-c2cccc(-c3nc4ccccc4[nH]3)c2)c1	437
Cn1cccc1C(=O)NCC(CCNc1cc(=O)c2ccccc2[nH]1)NCc1cc(Br)cc(Br)c1 (centres undefined)	911
CCOc1ccccc1CON1C(N)=NC(N)=NC1(C)C	3.71
CCCNCc1ccc(-c2ccc(CN(CCOC)C(=O)c3ccc([N+](=O)[O-])c(C)c3)cc2)nc1	868
N#Cc1ccc(NC(=O)Nc2ccc3c(c2)CCN(C2CCC2)CC3)cc1	628
CC(C)c1ccc2c(c1)C(=O)c1ccc(C(=O)O)cc1S2(=O)=O	472
O=C(/C=C/c1ccc(Cl)c(Cl)c1)N1CCC(CN2CCC(c3c[nH]c4ccc(O)cc34)CC2)CC1	776
Clc1cc2c(Nc3ccc(Oc4ccccc4)cc3)ccnc2cc1-c1ccc(CNCCN2CCOCC2)o1	707
Cc1ccc(Nc2nc(C)cc(N3CCN(c4ccccc4)CC3)n2)cc1	1530
CC(C)C[C@H](NC(=O)c1ccc(OCCN2CCOCC2)cc1)C(=O)N[C@H](/C=N/N(C)C(=O)c1ccccc1)CCc1ccccc1	269
CC(C)(CNC(=O)[C@@H]1CCCCN1)c1nc(-c2ccc(Cl)c(O)c2)c(-c2ccncc2)[nH]1	841
Cc1ccc(Cc2cnc(CN3CCCCC3)c(O)c2)cc1	890
Cn1nc(-c2ccc(CNC3CCc4ccccc43)cc2)c2cnc(NCCN3CCCC3)nc21 (centres undefined)	1350
CC(CN1CCN(C)CC1)C(=O)Nc1cccc(-c2ccc(-c3nc4ccccc4[nH]3)cc2)c1 (centres undefined)	943
O=C(Nc1ccc(C(F)(F)F)cc1)NC1CCN(c2ccnc3ccccc23)C1 (centres undefined)	87.5
COc1ccc(F)cc1-c1csc(N(c2ccc(F)cc2)C2CCNCC2)n1	1210
COc1cc2c(cc1S(=O)(=O)c1ccc(NC(=O)c3ccc4ccccc4c3)cc1)CCN(C)CC2	797
CCc1nc2c(N)nc(N)nc2nc1-c1ccc(OC)cc1	1200
NC(=O)c1cccc(Nc2nccc(Nc3ccc(Oc4ccc5ccccc5c4)cc3)n2)c1	810
CCOc1cc(CC)ccc1C1CCN(CCCCNC(=O)c2ccc(NC(=O)c3ccc(C#N)cc3)cc2)CC1	504
